Experimental data reported in patent US5968526A, “T cell epitopes of the major allergens from Dermatophagoides (house dust mite)” (Immulogic Pharamaceutical Corporation, priority 1995, dated 1999).

Tests used:
[1] = system: T cell cultures reactive with Der p I from house dust mite-allergic subjects; test: secondary T cell proliferation assay, Group I (Der p I) overlapping and candidate/unique peptides; percent of T cell reactivity; type: cell-based, human; details: patient 1733; for T cell stimulation index (S.I.): highest S.I. ≥2.0 recorded
Description: To determine whether a peptide (candidate peptide) or a combination of candidate peptides are likely to comprise a sufficient percentage of the T cell reactivity of house dust mite protein allergens, to induce T cell nonresponsiveness in a substantial percentage of a population of individuals sensitive to house dust mite allergen, an algorithm can be used. In accordance with one such algorithm, a set of overlapping peptides is produced by systematically dividing the protein allergen(s) of interest into al least two overlapping peptide regions of desired lengths (e.g., of about 12-30 amino acid residues in length, preferably not longer than about 25 amino acid residues in length with about 5-15 amino acid residues of overlap). This division into peptide regions can be arbitrary, can be made according to an algorithm, or can be wholly or partially based on regions of house dust mite Group I and/or Group II protein allergens known to comprise at least one T cell epitope. Preferably, at least 50% of the entire house dust mite protein allergen sequence and more preferably, the entire house dust mite protein allergen sequence is divided into two or more peptides. A human T cell stimulation index is determined for each of the peptides in an in vitro T cell proliferation assay as described herein for each individual tested in a population of individuals sensitive to the protein antigen. For example both WO93/08279 and WO94/24281 disclose T cell studies with overlapping peptides derived from Der p I, Der p II, Der f I and Der f II. A candidate peptide or combination of candidate peptides is selected based, at least in part, on the mean human T cell stimulation index of the candidate peptide in the set of peptides tested and the positivity index of the candidate peptide in the set of peptides tested (see, FIGS. 3 and 4). The human T cell stimulation index for the candidate peptide(s) is summed. For each individual, the human T cell stimulation index for the candidate peptide(s) is divided by the sum of the human T cells stimulation indices of the remaining peptides in the set of peptides tested to determine a percent of T cell reactivity as shown below:
Alternatively, the presence of T cell epitopes in the candidate peptide dependent on amino acids residues in an overlapping peptide located at either the N-terminus or C-terminus of the candidate peptide in the amino acid sequence of the protein antigen, but which epitopes are not present in the candidate peptide can be considered in calculating the percent of T cell reactivity in the candidate peptide by use of the following formula: [formula]
In this formula, "NT flanking peptide" refers to a peptide which comprises amino acid residues which overlap with amino acid residues located at the N-terminus of the candidate peptide in the amino acid sequence of the protein antigen from which the peptide is derived; "CT flanking peptide" refers to a peptide which comprises amino acid residues which overlap with amino acid residues located a the C-terminus of the candidate peptide in the amino acid sequence of the protein antigen from which the peptide is derived. In this calculation stimulation indices for the candidate peptide, the N-terminal flanking peptide and the C-terminal flanking peptide are added and divided by the sum total of the stimulation indices for the entire set of overlapping peptides obtain a percent of T cell reactivity for the candidate peptide. If a combination of two or more candidate peptides is selected each of which contains amino acid residues which overlap, this calculation cannot be used to determine a percent of T cell reactivity for each candidate peptide separately. However, a total percent of T cell reactivity for the combination of candidate peptides can be obtained. In this situation, the stimulation indices for all of the candidate peptides which overlap is included in the calculation. […]

[2] = system: T cell lines primed in vitro to Der f I; test: secondary proliferation of Der f I-primed T cell lines (Examples VI, VII, XI); type: cell-based, human; details: for T cell response to Der p I peptides: Der f I primed, 8 positive experiments, FIG. 8
Outline: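 PBMC from house dust mite-allergic patients were primed in vitro with recombinant or affinity-purified Der f I at 20 μg/ml (or 10 μg/ml), then rechallenged with Der f I peptides. Antigen-presenting cells were x-irradiated autologous PBMC (3500 Rads) or EBV-transformed B cells (25,000 Rads). Read-out was T cell proliferation.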

Substance | T cell stimulation index (S.I.) [1] | T cell response to Der p I peptides [2] | further results
DP I-21.2: Der p I peptide; unique peptide (SINGNAPAEIDLRQMRTVTPIRMQ) | 3.6 | – | –
DF I-22.2: VAATESAYLAYRNTSLDLSEQELVD, amino acid residues 40-64 of Der f I | – | – | stimulation index, rank in group ([2]; 9 patients, FIG. 16a / 16b): highest stimulation index
DP I-26.6: modified Der p I peptide; unique peptide (DEGIKDLDAFRHYDGRTIIQRDNGYE) | 5.0 | – | estimated range of T cell reactivity (% reactivity of peptide) ([1]; of total reactivity of the Der p I protein): 12.3%-24
DP I-1: Der p I peptide, amino acid residues 1-20 (TNACSINGNAPAEIDLRQMR) | – | respond significantly | –
DP I-3: Der p I peptide (TVTPIRMQGGCGSCWAFSGVAATESAYLA) | 3.9 | respond significantly | –
DP I-23.31: modified Der p I peptide; unique peptide (DEEGVVQESYYRYVAREQSCRRPNAE) | 5.7 | – | –
